In US7968537B2, “Pyrimidine compound and pests controlling composition containing the same” (Sumitomo Chemical Company, Limited, priority 2003, dated 2011):

System: Western flower thrips (Frankliniella occidentalis)
Assay: Test Example 2: Western flower thrips larvae on treated cucumber leaf
Format: in vivo
Conditions: 500 ppm, 20 ml/cup on cucumber; thirty larvae set free on cut first true leaf; after seven days
Method: A formulation of each test compound obtained according to Formulation Example 5 was diluted with water so that the active ingredient concentration came to 500 ppm to prepare a test spray liquid. The seeds of cucumber were planted in a polyethylene cup, and grown until their first foliage leaves developed, and then a test spray liquid was applied at a ratio of 20 ml/cup to the plant. After the liquid sprayed to the cucumber were dried, the first true leaf was cut off and placed on a filter paper (70 mm in diameter) impregnated with water in a polyethylene cup (110 mm in diameter). Thirty larvae of Western flower thrips (Frankliniella occidentalis) were set free on the first true leaf, which was covered with a polyethylene cup. After seven days, the number of surviving pests was examined.

Structure (SMILES)	number of surviving pests
CC#CCOc1cc(N2C[C@@H](C)C[C@H](C)C2)ncn1 (relative stereo) [Compound (44), 4-(2-butynyloxy)-6-(trans-3,5-dimethylpiperidino)pyrimidine]	0
CC#CCOc1ncnc(N2CC(C)CC(C)C2)c1F (stereo not shown) [(51), 4-(2-butynyloxy)-5-fluoro-6-(3,5-dimethylpiperidino)pyrimidine]	0
CC#CCOc1ncnc(N2CC(C)CC(C)C2)c1F (stereo not shown) [Compound (4), 4-(2-butynyloxy)-5-fluoro-6-(3,5-dimethylpiperidino)pyrimidine]	0
CC#CCOc1cc(N2C[C@H](C)C[C@H](C)C2)ncn1 [Compound (23), 4-(2-butynyloxy)-6-(cis-3,5-dimethylpiperidino)pyrimidine]	0
CC#CCOc1cc(N2CCCC(C(F)(F)F)C2)ncn1 (stereo not shown) [Compound (24), 4-(2-butynyloxy)-6-(3-trifluoromethylpiperidino)pyrimidine]	0
CC#CCOc1ncnc(N2CCCC(C)C2)c1F (stereo not shown) [Compound (26), 4-(2-butynyloxy)-5-fluoro-6-(3-methylpiperidino)pyrimidine]	0
CC#CCOc1ncnc(N2C[C@H](C)C[C@H](C)C2)c1F [Compound (29), 4-(2-butynyloxy)-5-fluoro-6-(cis-3,5-dimethylpiperidino)pyrimidine]	0
CC#CCOc1ncnc(N2CCCC(C)(C)C2)c1F [Compound (32), 4-(2-butynyloxy)-6-(3,3-dimethylpiperidino)-5-fluoropyrimidine]	0
CC#CCOc1ncnc(N2CCCCC2CC)c1F (stereo not shown) [Compound (33), 4-(2-butynyloxy)-6-(2-ethylpiperidino)-5-fluoropyrimidine]	0
CC#CCOc1ncnc(N2CCCCCCC2)c1F [Compound (46), 1-(6-(2-butynyloxy)-5-fluoropyrimidin-4-yl)octahydro-1H-azocine]	0
CC#CCOc1nc(F)nc(N2CC(C)CC(C)C2)c1Cl (stereo not shown) [Compound (52), 5-chloro-4-(2-butynyloxy)-2-fluoro-6-(3,5-dimethylpiperidino)pyrimidine]	0
CC#CCOc1ncnc(N2CC=CCC2)c1F [Compound (53), 1-(6-(2-butynyloxy)-5-fluoropyrimidin-4-yl)-1,2,3,6-tetrahydropyridine]	0

System: cotton aphids (Aphis gossypii)
Assay: Test Example 1: spray test on cotton aphids on cucumber plants
Format: in vivo
Conditions: 500 ppm active ingredient, sprayed 20 ml/cup on cucumber with about 20 cotton aphids; 6th day after the application
Method: A formulation of a test compound obtained in Formulation Example 5 was diluted with water so that the active ingredient concentration came to 500 ppm to prepare a test spray liquid. The seeds of cucumber were planted in polyethylene cups and grown until their first foliage leaves developed, on which about 20 cotton aphids (Aphis gossypii) were made parasitic. After one day, the test spray liquid was sprayed at the rate of 20 ml/cup onto the cucumber plants. On the 6th day after the application, the number of cotton aphids was examined and the control value was determined by the following formula: Control value (%)={1−(Cb×Tai)/(Cai×Tb)}×100 wherein the variables in the formula have the following meanings: Cb: the number of insects before the treatment in the non-treated area; Cai: the number of insects at the time of observation in the non-treated area; Tb: the number of insects before the treatment in the treated area; and Tai: the number of insects at the time of observation in the treated area.

Structure (SMILES)	control value
COc1cc(N2CCCCC2)ncn1 [compound of the formula (A)]	≤ 29%
